{
  "source": "patent US10683292B2",
  "about": "“Purine and 3-deazapurine analogues as choline kinase inhibitors” (NERVIANO MEDICAL SCIENCES S.R.L., priority 2016, dated 2020)",
  "key": {"[1]": {"target": "T1, hChoKβ FL (Homo sapiens, UniProt Q9Y259)", "T1 construct": "hChoKβ full length (FL), corresponding to aminoacids 2-395; GST (N, cleaved yes); Prescission Protease recognition site (N, cleaved yes); made in house; host or cells: Escherichia coli BL21pLysS (DE3)", "T1 sequence (Q9Y259 2-395)": "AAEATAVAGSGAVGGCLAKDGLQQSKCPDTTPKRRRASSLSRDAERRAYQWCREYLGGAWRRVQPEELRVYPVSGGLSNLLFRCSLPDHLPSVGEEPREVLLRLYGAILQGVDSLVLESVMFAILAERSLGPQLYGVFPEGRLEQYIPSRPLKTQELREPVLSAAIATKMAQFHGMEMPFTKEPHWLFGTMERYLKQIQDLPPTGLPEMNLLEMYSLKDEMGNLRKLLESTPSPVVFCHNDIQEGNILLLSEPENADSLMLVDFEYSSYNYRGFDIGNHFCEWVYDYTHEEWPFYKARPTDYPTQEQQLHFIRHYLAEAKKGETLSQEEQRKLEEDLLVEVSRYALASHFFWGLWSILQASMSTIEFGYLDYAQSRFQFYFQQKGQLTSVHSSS", "assay": "Biochemical kinase inhibition assay (Kinase-Glo Luminescent Kinase Assay) on hChoKβ FL", "settings": "ATP 5 μM, choline 20 μM, 60 minutes at rt; read-out: IC50 ChoKβ", "description": "The biochemical activity of compounds against Δ49N-ChoKα and ChoKβ FL were determined using the Kinase-Glo™ Luminescent Kinase Assay (Promega cat. V6711).\nCompounds were 3-fold serially diluted from 10 to 0.0005 μM, then incubated for 60 minutes at rt in the presence of ATP 5 μM, choline (5 μM for ChoKα and 20 μM for ChoKβ) and enzyme in a final volume of 19 μL of kinase buffer (50 mM Hepes pH 7.5, 10 mM MgCl2, 1 mM DTT, 3 μM Na3VO4 and 0.2 mg/mL BSA). The final concentration of DMSO was 1%.\nAt the end of the incubation, an amount of 19 μL of KinaseGlo Reagent was added to each well to stop the reaction and after 30 minutes the luminescence signal was measured using ViewLux reader (Perkin Elmer).\nThe data per each molecule are analyzed by an internally customized version of the SW package “Assay Explorer” which provides sigmoidal fittings of the ten-dilution curves for IC50 determination using a 4 parameter logistic equation: y=bottom+(top−bottom)/(1+10^((log IC50−x)*slope)) where x is the logarithm of the inhibitor concentration, y is the response; y starts at bottom and goes to top with a sigmoid shape."}, "[2]": {"target": "T2, Δ49N-hChoKα (Homo sapiens, UniProt P35790)", "T2 construct": "cDNA fragment 362-1534, corresponding to aminoacids 50-457; GST (N, cleaved yes); Prescission Protease recognition site (N, cleaved yes); made in house; host or cells: Escherichia coli BL21pLysS (DE3)", "T2 sequence (P35790 50-457, stated change not applied)": "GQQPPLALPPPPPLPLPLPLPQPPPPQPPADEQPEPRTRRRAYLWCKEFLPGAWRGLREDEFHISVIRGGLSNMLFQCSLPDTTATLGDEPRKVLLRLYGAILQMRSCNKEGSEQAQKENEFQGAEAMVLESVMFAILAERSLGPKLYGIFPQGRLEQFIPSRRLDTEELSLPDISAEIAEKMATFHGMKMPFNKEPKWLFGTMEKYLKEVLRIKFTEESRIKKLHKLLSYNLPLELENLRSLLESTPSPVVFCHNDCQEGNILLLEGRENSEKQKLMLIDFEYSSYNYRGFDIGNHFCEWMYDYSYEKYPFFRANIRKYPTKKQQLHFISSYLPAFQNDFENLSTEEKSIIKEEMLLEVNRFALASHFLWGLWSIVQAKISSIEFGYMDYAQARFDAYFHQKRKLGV", "assay": "Biochemical kinase inhibition assay (Kinase-Glo Luminescent Kinase Assay) on Δ49N-hChoKα", "settings": "ATP 5 μM, choline 5 μM, 60 minutes at rt; read-out: IC50 ChoKα"}, "[3]": {"test_system": "MDA-MB-468 breast cancer cell line", "assay": "Phosphocholine determination assay (mechanism of action in cells), cell extracts", "type": "cell-based", "settings": "24 h", "description": "Phosphocholine Determination Assay (Mechanism of Action in Cells)\nAfter 24 h, fresh medium and a compound of general formula (I) were added for further 24 h. At the end of the treatment, the cells were trypsinised, counted and the diameter was determined using a Coulter Counter (Multisizer 3, Beckman). […] Then, 0.7 mL ice-cold absolut EtOH were added (final ratio EtOH/H2O 70:30, v/v). After 24 h at −20° C. the samples were sonicated and centrifuged at 14,000×g for 30 minutes.\nPhosphocholine concentration levels were assessed in the supernatants using an Ultra High Pressure Liquid Chromatography system (UPLC®, Waters) coupled with a triple quadrupoles mass spectrometer (TQD, Waters) operating in single reaction monitoring mode (SRM). Analyses were performed using Acquity HSS T3 column 2.1×50 mm column, 1.8 μm particle size. […] Waters TQD triple quad mass spectrometer was equipped with an electrospray ion source operating in the positive mode. Source parameters were set as follows: desolvation gas flow 1000 L/h, cone gas flow 50 L/h; collision gas flow 0.2 mL/min; source temperature 130° C.; desolvation temperature 450° C. Dimethyl glicine (DMG) was added to samples as internal standard at 100 μM final concentration. […] The concentration of PCho in the sample was normalized to the total volume of cells (number cells×volume of single cell considered like a sphere)."}, "[4]": {"test_system": "MDA-MB-468 breast cancer cell line", "assay": "Phosphocholine determination in cell medium culture (cell supernatants)", "type": "cell-based", "settings": "compound 2 μM", "procedure": "For the determination of phosphocholine in cells, extracts were prepared according to ref. Cancer Res., 2005, 65, 9369-9376 with some modifications. MDA-MB-468 breast cancer cell line was plated at 1×10^6 cells in 10 cm petri dish culture in RPMI, 10% FCS culture medium. After 24 h, fresh medium and a compound of general formula (I) were added for further 24 h. At the end of the treatment, the cells were trypsinised, counted and the diameter was determined using a Coulter Counter (Multisizer 3, Beckman). Cells were washed twice with ice-cold physiologic saline solution and 2×10^6 cells resuspended in 0.3 mL ice-cold twice-distilled water. […]\nPhosphocholine concentration levels were assessed in the supernatants using an Ultra High Pressure Liquid Chromatography system (UPLC®, Waters) coupled with a triple quadrupoles mass spectrometer (TQD, Waters) operating in single reaction monitoring mode (SRM). […] The monitored transitions were m/z 184.00 to 85.7 (collision energy 24 eV) for phosphocholine and m/z 103.0 to 57.5 (collision energy 13 eV) for DMG. […]\nFor the determination of phosphocholine in cell medium culture, cell culture supernatants (500 μL) were denatured by adding 100 μL of trichloroacetic acid (TCA) 1M containing dimethyl glicine (DMG) (100 μM), used as internal standard. […] The supernatants were subsequently analyzed for phosphocholine determination."}},
  "data": [
    {"molecule": "Nc1nc(Cl)nc2c1ncn2[C@H]1CC[C@@H](C(=O)Nc2ncc(Cl)s2)CC1", "note": "[cpd 114, cis-4-(6-amino-2-chloro-9H-purin-9-yl)-N-(5-chloro-1,3-thiazol-2-yl)cyclohexanecarboxamide]", "values": [
      {"measurement": "IC50", "setting": "[1]", "result": 4690, "unit": "nM"},
      {"measurement": "IC50", "setting": "[2]", "result": 34, "unit": "nM"},
      {"measurement": "inhibition at 0.4 µM", "setting": "[3]; Homo sapiens, MDA-MB-468, compound 0.4 μM, vs untreated control", "result": 37, "unit": "%"},
      {"measurement": "inhibition at 2 µM", "setting": "[3]; Homo sapiens, MDA-MB-468, compound 2 μM, vs untreated control", "result": 76, "unit": "%"},
      {"measurement": "[Phosphocholine] in MDA-MB-468 cell extracts", "setting": "[3]; compound 0.4 μM", "result": 5.21, "unit": "mM"},
      {"measurement": "[Phosphocholine] in MDA-MB-468 cell extracts", "setting": "[3]; compound 2 μM", "result": 1.98, "unit": "mM"},
      {"measurement": "inhibition at 2 µM", "setting": "[4]; Homo sapiens, MDA-MB-468, vs untreated control", "result": 66, "unit": "%"},
      {"measurement": "[Phosphocholine] in MDA-MB-468 cell supernatants", "setting": "[4]", "result": 2.50, "unit": "µM"}
    ]}
  ]
}
